We go through 18 compounds from patent US11083717B2, “Compositions and methods for drug sensitization of parasites” (The Texas A&M University System, priority 2015, dated 2021).

For series [1], the system named is S. cerevisiae. The series is described as follows: in vitro. As to conditions: Saccharomyces cerevisiae.
For series [2], the system named is human fibroblast. Kind of series: in vitro. Particulars: human.
For series [3], the system named is Cryptosporidium parvum (CP). Kind of series: Cell culture model of Cryptosporidium parvum infection in HCT-8 cells, real-time qRT-PCR. The class given is cell-based. Particulars: Cryptosporidium parvum; for inhibition at 0.25 µM: HCT-8, @0.25 uM. The essentials: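 HCT-8 monolayers were infected with C. parvum Iowa oocysts (1.5×10^4/well) for 3 h, then compounds were added after medium exchange and cells were incubated 41 h more (44 h total, 37 °C). Parasite Cp18S rRNA was measured by one-step SYBR qRT-PCR of lysates, normalized to host Hs18S, and % inhibition at the stated µM was derived from a standard curve.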

The subject of series [4] is Cryptosporidium parvum. Particulars: mouse, in vivo. On the procedure:
The anticryptosporidial activity of the in vitro inhibitors was assessed in the IL-12 knockout mouse model that resembles the acute human disease (Ehigiator H N, Romagnoli P, Borgelt K, Fernandez M, McNair N, Secor W E, Mead J R. 2005. Mucosal cytokine and antigen-specific responses to Cryptosporidium parvum in IL-12p40 KO mice. Parasite Immunol. 27: 17-28; Campbell L D, Stewart J N, Mead J R. 2002. Susceptibility to Cryptosporidium parvum infections in cytokine- and chemokine-receptor knockout mice. J. Parasitol. 88:1014-1016). The protocol was approved by the Institutional Animal Care and Use Committees of Emory University, the AtlantaVAMedical Center, and Brandeis University. Mice (6 to 10 per group) were inoculated with 1,000 purified CP oocysts (Iowa isolate, from cattle). Treatment by gavage began 4 h postinfection with either vehicle (5% dimethyl sulfoxide (DMSO) in canola oil), 50-100 mg/kg compound, or 2,000 mg/kg paromomycin. Compounds were given for 7 days, and mice were sacrificed on day 8 (peak infection). Parasite load was quantified by fluorescence-activated cell sorting (FACS) assays for the presence of the oocysts in the feces at days 0, 4, and 7. Fecal pellets from individual mice were routinely collected daily and homogenized in adjusted volumes of 2.5% potassium dichromate. Samples were processed individually. Aliquots (200 ul) of vortexed samples were processed over microscale sucrose gradients as previously described (Arrowood M J, Hurd M R, Mead J R. 1995. A new method for evaluating experimental cryptosporidial parasite loads using immunofluorescent flowcytometry. J. Parasitol. 81:404-409). The oocyst-containing fraction was collected, washed, and treated with monoclonal antibody (OW5O-FITC) for 20 min. Samples were adjusted to 600 ul, and a portion (100 ul) was assayed with a 102-s sampling interval using logical gating of forward/side scatter and OW5O-FITC fluorescence signal on a Becton, Dickinson FACScan flow cytometer. Flow cytometry data were evaluated by analysis of variance (KaleidaGraph (Synergy Software, Reading Pa.); Microsoft Excel (Microsoft Corporation, Redmond, Wash.)).
NZ-366 (50 mg/kg) and NZ-369 (100 mg/kg) were administered via gavage in a single daily dose to IL-12 knockout mice that were infected with 1,000 CP oocysts. Additional control groups included those treated with single daily doses of vehicle, and paromomycin (Prm) (2,000 mg/kg), by oral gavage.

In series [5] the target is Human ether-a-go-go-related gene (hERG) (Homo sapiens, UniProt Q12809). The series is described as follows: hERG test (potential cardiotoxicity). The format is biochemical. As to conditions: read-out: hERG (Abbvie).
Human ether-a-go-go-related gene (hERG), sequence (Q12809 whole entry): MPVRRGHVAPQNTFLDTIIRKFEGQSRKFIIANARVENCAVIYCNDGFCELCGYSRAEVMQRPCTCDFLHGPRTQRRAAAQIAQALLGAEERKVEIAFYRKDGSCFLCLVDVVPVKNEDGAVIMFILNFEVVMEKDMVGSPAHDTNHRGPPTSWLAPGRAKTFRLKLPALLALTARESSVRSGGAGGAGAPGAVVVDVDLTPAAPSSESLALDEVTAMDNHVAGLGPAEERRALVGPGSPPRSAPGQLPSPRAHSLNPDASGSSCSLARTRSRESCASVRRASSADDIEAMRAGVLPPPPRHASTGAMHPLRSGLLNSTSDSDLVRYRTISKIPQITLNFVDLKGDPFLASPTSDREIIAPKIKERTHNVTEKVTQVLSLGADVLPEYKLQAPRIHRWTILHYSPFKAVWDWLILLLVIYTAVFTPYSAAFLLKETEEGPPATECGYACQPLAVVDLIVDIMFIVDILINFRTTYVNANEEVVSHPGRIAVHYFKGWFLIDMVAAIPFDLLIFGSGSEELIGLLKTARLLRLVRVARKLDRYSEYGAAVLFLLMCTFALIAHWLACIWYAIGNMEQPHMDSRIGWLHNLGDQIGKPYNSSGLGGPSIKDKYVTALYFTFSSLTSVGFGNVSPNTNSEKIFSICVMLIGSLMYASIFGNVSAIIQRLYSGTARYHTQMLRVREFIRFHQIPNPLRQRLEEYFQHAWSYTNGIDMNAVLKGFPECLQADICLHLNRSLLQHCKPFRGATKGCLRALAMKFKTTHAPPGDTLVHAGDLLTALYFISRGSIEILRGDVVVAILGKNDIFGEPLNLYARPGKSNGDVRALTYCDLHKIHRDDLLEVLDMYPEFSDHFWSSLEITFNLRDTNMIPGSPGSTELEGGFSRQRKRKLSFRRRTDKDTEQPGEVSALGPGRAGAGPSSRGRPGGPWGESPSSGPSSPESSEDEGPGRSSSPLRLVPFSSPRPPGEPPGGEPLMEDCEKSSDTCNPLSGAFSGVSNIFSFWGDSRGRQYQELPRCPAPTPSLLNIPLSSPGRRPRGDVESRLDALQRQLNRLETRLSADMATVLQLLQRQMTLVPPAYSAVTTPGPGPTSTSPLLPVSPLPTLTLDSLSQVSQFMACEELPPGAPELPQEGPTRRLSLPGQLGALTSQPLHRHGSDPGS
Series [6] can be described thus: MCLint in vitro intrinsic clearance, mouse (MLM). The format is in vitro ADME.
Series [7] is described as follows: in vitro.
Series [8] is described as follows: HCLint in vitro intrinsic clearance, human (HLM). The class given is in vitro ADME.
The mark [9] stands for this setting: 44 h, CP in HCT-8 cells, 44 h infection, 50% reduction of parasite growth vs control, NA: not active, read-out: MIC50.

≈ marks a conversion by molar mass, not a printed value. Like-named read-outs stand apart in the source and are kept apart here.

Regarding `CC(C(=O)N1CCNCC1)c1ccc(Oc2nc3ccc(Cl)cc3s2)cc1` (stereo not shown) [NZ-364, 2-{4-[(6-chloro-1,3-benzothiazol-2-yl)oxy]phenyl}-1-(piperazin-1-yl)propan-1-one], the “concentrations at which not toxic, S. cerevisiae cytotoxicity testing” value in series [1] is not below 100 µM. In series [2], the “concentrations at which not toxic, human fibroblast cytotoxicity testing” value was not below 100 µM. Besides, in series [3] (setting [9]), the MIC50 was found to be 120 nM (≈ 0.0482 µg/mL). The “effectiveness in the same type of test (IL-12 knockout mouse model)” value (“effectiveness in the same type of test” below) in series [4] was “effective”.
As for `CC(C(=O)NCC(O)CO)c1ccc(Oc2nc3ccc(Cl)cc3s2)cc1` (stereo not shown) [NZ-372, 2-{4-[(6-chloro-1,3-benzothiazol-2-yl)oxy]phenyl}-N-(2,3-dihydroxypropyl)propanamide], in series [1], the “concentrations at which not toxic, S. cerevisiae cytotoxicity testing” value was not below 100 µM. Besides, the MIC50 in series [3] (setting [9]) was determined as 85 nM (≈ 0.0346 µg/mL). The “effectiveness in the same type of test” value in series [4] is on record as “effective”.
As to `O=C(Cc1ccc(Oc2nc3ccc(F)cc3s2)cc1)N1CCCCC1` [NZ-471, 2-{4-[(6-fluoro-1,3-benzothiazol-2-yl)oxy]phenyl}-1-(piperidin-1-yl)ethan-1-one], the “concentrations at which not toxic, S. cerevisiae cytotoxicity testing” value in series [1] is not below 100 µM. The “concentrations at which not toxic, human fibroblast cytotoxicity testing” value in series [2] was not below 100 µM. Also, the MIC50 in series [3] (setting [9]) was in the range of 1000 to 4000 nM (≈ 0.37 to 1.48 µg/mL). The inhibition at 4 µM in series [3] (HCT-8, @4 uM, read-out: % inh @) is 89%.
As to `O=C(Cc1ccc(Oc2nc3ccc(F)cc3s2)cc1)N1CCNCC1` [NZ-472, 2-{4-[(6-fluoro-1,3-benzothiazol-2-yl)oxy]phenyl}-1-(piperazin-1-yl)ethan-1-one], the “concentrations at which not toxic, S. cerevisiae cytotoxicity testing” value in series [1] is not below 100 µM. For the same compound, in series [2], the “concentrations at which not toxic, human fibroblast cytotoxicity testing” value is not below 100 µM. In addition, in series [3] (setting [9]), the MIC50 is approximately 1000 nM (≈ 0.371 µg/mL).
Turning to `CN1CCN(C(=O)Nc2ccc(Oc3nc4ccc(Cl)cc4s3)cc2)CC1` [NZ-475, N-{4-[(6-chloro-1,3-benzothiazol-2-yl)oxy]phenyl}-4-methylpiperazine-1-carboxamide], the “concentrations at which not toxic, S. cerevisiae cytotoxicity testing” value in series [1] is not below 100 µM. Also, the “concentrations at which not toxic, human fibroblast cytotoxicity testing” value in series [2] was not below 100 µM. For the same compound, the MIC50 in series [3] (setting [9]) turned out to be 60 nM (≈ 0.0242 µg/mL). Moreover, in series [4], the “effectiveness in the same type of test” value was “effective”.
For the compound `CN1CCN(C(=O)Cc2ccc(Oc3nc4ccc(F)cc4s3)cc2)CC1` [NZ-476, 2-{4-[(6-fluoro-1,3-benzothiazol-2-yl)oxy]phenyl}-1-(4-methylpiperazin-1-yl)ethan-1-one], in series [1], the “concentrations at which not toxic, S. cerevisiae cytotoxicity testing” value was not below 100 µM. For the same compound, the “concentrations at which not toxic, human fibroblast cytotoxicity testing” value in series [2] is not below 100 µM. Further, the MIC50 in series [3] (setting [9]) was in the range of 500 to 1000 nM (≈ 0.193 to 0.385 µg/mL).
Turning to `CC(C(=O)N1CCNCC1)c1ccc(Oc2nc3ccc(F)cc3s2)cc1` (stereo not shown) [NZ-477, 2-{4-[(6-fluoro-1,3-benzothiazol-2-yl)oxy]phenyl}-1-(piperazin-1-yl)propan-1-one], the “concentrations at which not toxic, S. cerevisiae cytotoxicity testing” value in series [1] is not below 100 µM. Moreover, the “concentrations at which not toxic, human fibroblast cytotoxicity testing” value in series [2] was not below 100 µM. The MIC50 in series [3] (setting [9]) was 50 to 170 nM (≈ 0.0193 to 0.0655 µg/mL).
With `O=C(Cc1ccc(Oc2nc3ccc(Cl)cc3s2)cc1)N1CCNCC1` [NZ-479, 2-{4-[(6-chloro-1,3-benzothiazol-2-yl)oxy]phenyl}-1-(piperazin-1-yl)ethan-1-one], the “concentrations at which not toxic, S. cerevisiae cytotoxicity testing” value in series [1] was not below 100 µM. For the same compound, the “concentrations at which not toxic, human fibroblast cytotoxicity testing” value in series [2] was not below 100 µM. Further, the MIC50 in series [3] (setting [9]) lay within 500 to 1000 nM (≈ 0.194 to 0.388 µg/mL).
`O=C(Cc1ccc(Oc2nc3cc(F)c(F)cc3s2)cc1)N1CCCCC1` [NZ-481, 2-{4-[(5,6-difluoro-1,3-benzothiazol-2-yl)oxy]phenyl}-1-(piperidin-1-yl)ethan-1-one]: the “concentrations at which not toxic, S. cerevisiae cytotoxicity testing” value in series [1] is not below 100 µM. The “concentrations at which not toxic, human fibroblast cytotoxicity testing” value in series [2] was not below 100 µM. In series [3] (setting [9]), the MIC50 is 1000 to 4000 nM (≈ 0.388 to 1.55 µg/mL).
In the case of `NC(=O)Cc1ccc(Oc2nc3ccc(F)cc3s2)cc1F` [NZ-484, 2-{2-fluoro-4-[(6-fluoro-1,3-benzothiazol-2-yl)oxy]phenyl}acetamide], in series [1], the “concentrations at which not toxic, S. cerevisiae cytotoxicity testing” value is not below 100 µM. The “concentrations at which not toxic, human fibroblast cytotoxicity testing” value in series [2] was not below 100 µM. Besides, the MIC50 in series [3] (setting [9]) was approximately 1000 nM (≈ 0.32 µg/mL).
In the case of `NC(=O)Cc1ccc(Oc2nc3cc(F)c(F)cc3s2)cc1` [NZ-485, 2-{4-[(5,6-difluoro-1,3-benzothiazol-2-yl)oxy]phenyl}acetamide], the “concentrations at which not toxic, S. cerevisiae cytotoxicity testing” value in series [1] was not below 100 µM. Further, the “concentrations at which not toxic, human fibroblast cytotoxicity testing” value in series [2] was not below 100 µM. Moreover, the MIC50 in series [3] (setting [9]) lay in the range of 1000 to 4000 nM (≈ 0.32 to 1.28 µg/mL).
`CC(C(=O)N1CCNCC1)c1ccc(Oc2nc3cc(F)c(F)cc3s2)cc1` (stereo not shown) [NZ-489, 2-{4-[(5,6-difluoro-1,3-benzothiazol-2-yl)oxy]phenyl}-1-(piperazin-1-yl)propan-1-one]: the “concentrations at which not toxic, S. cerevisiae cytotoxicity testing” value in series [1] is not below 100 µM. The “concentrations at which not toxic, human fibroblast cytotoxicity testing” value in series [2] was not below 100 µM. Moreover, the MIC50 in series [3] (setting [9]) was less than 250 nM. This compound displayed an inhibition at 0.25 µM in series [3] of 68%.
As for `O=C(Cc1ccc(Oc2nc3ccc(F)cc3s2)cc1)N1CCCC1` [NZ-490, 2-{4-[(6-fluoro-1,3-benzothiazol-2-yl)oxy]phenyl}-1-(pyrrolidin-1-yl)ethan-1-one], the “concentrations at which not toxic, S. cerevisiae cytotoxicity testing” value in series [1] is not below 100 µM. For the same compound, the “concentrations at which not toxic, human fibroblast cytotoxicity testing” value in series [2] was not below 100 µM. For the same compound, the MIC50 in series [3] (setting [9]) is approximately 250 nM (≈ 0.0891 µg/mL). For the same compound, in series [3], the inhibition at 0.25 µM turned out to be 60%.
For `NC(=O)Cc1ccc(Oc2nc3cc(F)c(F)cc3s2)cc1F` [NZ-496, 2-{4-[(5,6-difluoro-1,3-benzothiazol-2-yl)oxy]-2-fluorophenyl}acetamide], in series [1], the “concentrations at which not toxic, S. cerevisiae cytotoxicity testing” value is not below 100 µM. Also, the “concentrations at which not toxic, human fibroblast cytotoxicity testing” value in series [2] is not below 100 µM. In addition, in series [3] (setting [9]), the MIC50 is 250 to 1000 nM (≈ 0.0846 to 0.338 µg/mL).
`NC(=O)Cc1ccc(Oc2nc3ccc(Cl)cc3s2)cc1F` [NZ-500, 2-{4-[(6-chloro-1,3-benzothiazol-2-yl)oxy]-2-fluorophenyl}acetamide]: the “concentrations at which not toxic, S. cerevisiae cytotoxicity testing” value in series [1] was not below 100 µM. Also, the “concentrations at which not toxic, human fibroblast cytotoxicity testing” value in series [2] is not below 100 µM. Besides, in series [3] (setting [9]), the MIC50 was approximately 250 nM (≈ 0.0842 µg/mL).
For the compound `NC(=O)Cc1ccc(Oc2nc3ccc(Cl)cc3s2)cc1` [NZ-505, 2-{4-[(6-chloro-1,3-benzothiazol-2-yl)oxy]phenyl}acetamide], the “concentrations at which not toxic, S. cerevisiae cytotoxicity testing” value in series [1] was not below 100 µM. In addition, the “concentrations at which not toxic, human fibroblast cytotoxicity testing” value in series [2] is not below 100 µM. Further, the MIC50 in series [3] (setting [9]) is approximately 250 nM (≈ 0.0797 µg/mL).
For the compound `CC(C(=O)NC1CC1)c1ccc(Oc2nc3ccc(Cl)cc3s2)cc1` (stereo not shown) [NZ-538, 2-{4-[(6-chloro-1,3-benzothiazol-2-yl)oxy]phenyl}-N-cyclopropylpropanamide], the IC50 is 7.3 µM in series [5], more than 100 µM in series [7] (Saccharomyces cerevisiae) and more than 100 µM in series [7] (human). In addition, the “MCLint (mL/min/g liver), MLM” value in series [6] is “MLM = 3.9 mL/min/g liver”. The “HCLint (mL/min/g liver), HLM” value in series [8] is recorded as “HLM = 0.7 mL/min/g liver”. Besides, the MIC50 in series [3] (setting [9]) and in series [3] (read-out: MIC50 (nM) (CP)) was 54 nM (≈ 0.0201 µg/mL) each time.
Turning to `CC(C(=O)NCCS(C)(=O)=O)c1ccc(Oc2nc3ccc(Cl)cc3s2)cc1` (stereo not shown) [NZ-578, 2-{4-[(6-chloro-1,3-benzothiazol-2-yl)oxy]phenyl}-N-(2-methanesulfonylethyl)propanamide], in series [7] (human), the IC50 was more than 100 µM. Also, the MIC50 was 18 nM (≈ 0.0079 µg/mL) in series [3] (setting [9]) and less than 30 nM in series [3] (read-out: MIC50 (nM) (CP)). In addition, the inhibition at 31 µM in series [3] (HCT-8, @31 uM, read-out: % (inhibition of CP) printed in the MIC50 (nM) (CP) column) was 83%.

What is called MIC50 is an inhibitory concentration at the 50% level, which refers to growth in some studies and to a panel of isolates in others.
